From PMC11062899, “De novo development of small cyclic peptides that are orally bioavailable” (Nature Chemical Biology, 2023)
Values joined by “and” are separate entries in the source; they are usually repeats but may differ in a detail not shown here. Identical values can stand only once. Like-named read-outs stand apart in the source and are kept apart here.

Experiments:
human α-thrombin = human α-thrombin (Homo sapiens, UniProt P00734); assay: Protease inhibition, Ki for human α-thrombin (fluorogenic substrate Z-Gly-Gly-Arg-AMC); type: biochemical; details: for Human alpha thrombin inhibition, slope normalized to DMSO: replicates R1-R3
Method: (§1) The inhibition constants (Ki) of cyclic peptides were calculated by measuring thrombin inhibition in the presence of different concentrations of the cyclic peptides. […] Human α-thrombin (Molecular Innovations) and rat α-thrombin (Molecular Innovations) were used at final concentrations of 2 nM and 3 nM, respectively, and fluorogenic substrate (Z-Gly-Gly-Arg-AMC, Bachem) was used at a concentration of 50 μM. Enzymatic activity was determined by measuring fluorescent gain on a Tecan Infinite M200 Pro microplate reader (excitation: 360 nm, emission: 465 nm) or a PHERAstar FSX microplate reader (excitation: 380 nm, emission: 440 nm) for 30 min at 25 °C with a fluorescent readout every 3 min. The two instruments were controlled with Tecan Infinite M200 Pro instrument software (iControl, version 1.12) and PHERAstar FSX software (version 5.70, edition 8), respectively. Protease inhibition was calculated by comparing the enzymatic activity to a control without cyclic peptide.
(§2) Half maximal inhibitory concentration (IC50) values were determined using a four-parameter logistic regression model in GraphPad Prism 9 to fit sigmoidal curves to the acquired data points according to equation (2) below.2 y=b+a−b/1+10^(logIC50−x)p where a and b represent the measured inhibition maximum and minimum, respectively; x is the logarithm of peptide concentration; y is the thrombin activity compared to a control without the cyclic peptide; and p is the Hill coefficient.
(§3) Ki values were calculated using the IC50 and the Cheng–Prusoff equation (equation (3)).3 Ki=IC50/1+S0/Km where Km is the Michaelis–Menten constant of the enzyme for the substrate used in the assay, and [S]0 is the initial substrate concentration.

[1] = Passive artificial membrane permeability (PAMPA);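 on Permeability% Average: top well sample relative to theoretical equilibrium sample by TIC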
rat α-thrombin = biological target: T1, rat α-thrombin (Rattus norvegicus, UniProt P18292); assay: Protease inhibition, Ki for rat α-thrombin (fluorogenic substrate Z-Gly-Gly-Arg-AMC); type: biochemical; details: for Rat alpha thrombin inhibition, slope normalized to DMSO: replicates R1-R3
T1 construct: rat α-thrombin (Molecular Innovations) were used at final concentrations of 2 nM and 3 nM; purchased Molecular Innovations
Method: as §1, §2, §3

[2] = peptide concentration 1.00E+02 uM
[3] = peptide concentration 1.19E-05 uM
[4] = peptide concentration 1.22E-02 uM
[5] = peptide concentration 1.25E+01 uM
[6] = peptide concentration 1.53E-03 uM
[7] = peptide concentration 1.56E+00 uM
[8] = peptide concentration 1.91E-04 uM
[9] = peptide concentration 1.95E-01 uM
[10] = peptide concentration 2.38E-05 uM
[11] = peptide concentration 2.44E-02 uM
[12] = peptide concentration 2.50E+01 uM
[13] = peptide concentration 3.05E-03 uM
[14] = peptide concentration 3.12E+00 uM
[15] = peptide concentration 3.81E-04 uM
[16] = peptide concentration 3.91E-01 uM
[17] = peptide concentration 4.77E-05 uM
[18] = peptide concentration 4.88E-02 uM
[19] = peptide concentration 5.00E+01 uM
[20] = peptide concentration 6.10E-03 uM
[21] = peptide concentration 6.25E+00 uM
[22] = peptide concentration 7.63E-04 uM
[23] = peptide concentration 7.81E-01 uM
[24] = peptide concentration 9.54E-05 uM
[25] = peptide concentration 9.77E-02 uM

O=C1C[C@H]2CCCN2C(=O)[C@H](Cc2ccccc2)NC(=O)[C@@H](NC(=O)c2ccc(Cl)s2)CC=CCCCN1 [compound 40]
Ki (human α-thrombin; average of R1-R3, read-out: Human alpha thrombin inhibition, Ki Average): 3.78 µM | Human alpha thrombin inhibition, slope normalized to DMSO (human α-thrombin; [2]): 24.9 and 25.0 and 20.5 | Human alpha thrombin inhibition, slope normalized to DMSO (human α-thrombin; [3]): 103.5 and 123.5 and 102.0 | Human alpha thrombin inhibition, slope normalized to DMSO (human α-thrombin; [4]): 106.6 and 86.5 and 61.9 | Human alpha thrombin inhibition, slope normalized to DMSO (human α-thrombin; [5]): 42.7 and 42.4 and 47.7 | Human alpha thrombin inhibition, slope normalized to DMSO (human α-thrombin; [6]): 60.4 and 64.9 and 105.1 | Human alpha thrombin inhibition, slope normalized to DMSO (human α-thrombin; [7]): 69.9 and 77.6 and 68.9 | Human alpha thrombin inhibition, slope normalized to DMSO (human α-thrombin; [8]): 105.9 and 100.1 and 65.2 | Human alpha thrombin inhibition, slope normalized to DMSO (human α-thrombin; [9]): 62.1 and 70.8 and 60.8 | Human alpha thrombin inhibition, slope normalized to DMSO (human α-thrombin; [10]): 104.8 and 103.3 and 108.6 | Human alpha thrombin inhibition, slope normalized to DMSO (human α-thrombin; [11]): 60.0 and 97.7 and 99.0 | Human alpha thrombin inhibition, slope normalized to DMSO (human α-thrombin; [12]): 33.7 and 37.4 and 37.6 | Human alpha thrombin inhibition, slope normalized to DMSO (human α-thrombin; [13]): 90.7 and 95.7 and 101.5 | Human alpha thrombin inhibition, slope normalized to DMSO (human α-thrombin; [14]): 61.5 and 74.1 and 46.2 | Human alpha thrombin inhibition, slope normalized to DMSO (human α-thrombin; [15]): 102.1 and 112.0 and 80.2 | Human alpha thrombin inhibition, slope normalized to DMSO (human α-thrombin; [16]): 89.5 and 72.3 | Human alpha thrombin inhibition, slope normalized to DMSO (human α-thrombin; [17]): 107.9 and 97.7 and 98.2 | Human alpha thrombin inhibition, slope normalized to DMSO (human α-thrombin; [18]): 58.9 and 84.7 and 96.6 | Human alpha thrombin inhibition, slope normalized to DMSO (human α-thrombin; [19]): 23.5 and 29.5 (2×) | Human alpha thrombin inhibition, slope normalized to DMSO (human α-thrombin; [20]): 76.0 and 102.5 and 99.2 | Human alpha thrombin inhibition, slope normalized to DMSO (human α-thrombin; [21]): 68.9 and 63.0 and 35.5 | Human alpha thrombin inhibition, slope normalized to DMSO (human α-thrombin; [22]): 61.7 and 101.5 and 87.5 | Human alpha thrombin inhibition, slope normalized to DMSO (human α-thrombin; [23]): 99.5 and 72.0 and 89.1 | Human alpha thrombin inhibition, slope normalized to DMSO (human α-thrombin; [24]): 106.0 and 103.1 and 118.2 | Human alpha thrombin inhibition, slope normalized to DMSO (human α-thrombin; [25]): 62.3 and 75.9 and 55.0 | PAMPA permeability: % permeability ([1]; 50 μM, 12–18 h, acceptor concentration relative to equilibrium): 42 ± 11% | Permeability% (single replicates R1–R3) ([1]; 50 μM, 13 h (Fig. 5d)): 47.12% and 50.47% and 29.38% | Permeability% Average ([1]; 50 μM, 13 h (Fig. 5d)): 42.3% | Papp at 50 μM ([1]; PAMPA, pH 7.4): 4.9 ×10⁻⁶ cm/s | Ki (rat α-thrombin; average of R1-R3, read-out: Rat alpha thrombin inhibition, Ki Average): 1.48 µM | Rat alpha thrombin inhibition, slope normalized to DMSO (rat α-thrombin; [2]): 8.5 and 10.5 and 9.7 | Rat alpha thrombin inhibition, slope normalized to DMSO (rat α-thrombin; [3]): 107.2 and 105.4 and 103.1 | Rat alpha thrombin inhibition, slope normalized to DMSO (rat α-thrombin; [4]): 105.9 and 100.2 and 97.5 | Rat alpha thrombin inhibition, slope normalized to DMSO (rat α-thrombin; [5]): 28.9 and 25.6 and 11.1 | Rat alpha thrombin inhibition, slope normalized to DMSO (rat α-thrombin; [6]): 104.7 and 100.1 and 100.7 | Rat alpha thrombin inhibition, slope normalized to DMSO (rat α-thrombin; [7]): 60.2 and 60.7 and 63.3 | Rat alpha thrombin inhibition, slope normalized to DMSO (rat α-thrombin; [8]): 101.0 and 93.6 and 80.4 | Rat alpha thrombin inhibition, slope normalized to DMSO (rat α-thrombin; [9]): 77.4 and 91.6 and 90.6 | Rat alpha thrombin inhibition, slope normalized to DMSO (rat α-thrombin; [10]): 99.9 and 95.1 and 101.1 | Rat alpha thrombin inhibition, slope normalized to DMSO (rat α-thrombin; [11]): 106.7 and 94.6 and 110.9 | Rat alpha thrombin inhibition, slope normalized to DMSO (rat α-thrombin; [12]): 3.6 and 15.7 and 17.5 | Rat alpha thrombin inhibition, slope normalized to DMSO (rat α-thrombin; [13]): 104.4 and 102.5 and 99.7 | Rat alpha thrombin inhibition, slope normalized to DMSO (rat α-thrombin; [14]): 54.9 and 53.5 and 52.8 | Rat alpha thrombin inhibition, slope normalized to DMSO (rat α-thrombin; [15]): 103.0 and 99.2 and 100.1 | Rat alpha thrombin inhibition, slope normalized to DMSO (rat α-thrombin; [16]): 58.4 and 57.7 and 87.4 | Rat alpha thrombin inhibition, slope normalized to DMSO (rat α-thrombin; [17]): 109.2 and 85.2 and 99.3 | Rat alpha thrombin inhibition, slope normalized to DMSO (rat α-thrombin; [18]): 100.3 and 95.3 and 106.1 | Rat alpha thrombin inhibition, slope normalized to DMSO (rat α-thrombin; [19]): 16.0 and 15.4 and 14.7 | Rat alpha thrombin inhibition, slope normalized to DMSO (rat α-thrombin; [20]): 102.6 and 94.5 and 101.1 | Rat alpha thrombin inhibition, slope normalized to DMSO (rat α-thrombin; [21]): 50.1 and 39.5 and 38.6 | Rat alpha thrombin inhibition, slope normalized to DMSO (rat α-thrombin; [22]): 102.8 and 105.9 and 89.3 | Rat alpha thrombin inhibition, slope normalized to DMSO (rat α-thrombin; [23]): 79.5 and 71.2 and 76.6 | Rat alpha thrombin inhibition, slope normalized to DMSO (rat α-thrombin; [24]): 103.0 and 96.4 and 84.9 | Rat alpha thrombin inhibition, slope normalized to DMSO (rat α-thrombin; [25]): 100.1 and 93.3 and 83.6 | IC50 (rat α-thrombin; single replicates R1-R3, read-out: Rat alpha thrombin inhibition, IC50): 2.6 µM and 2.78 µM and 2.67 µM | Ki (rat α-thrombin; single replicates R1-R3, read-out: Rat alpha thrombin inhibition, Ki): 1.44 µM (2×) and 1.54 µM (2×) and 1.48 µM (2×)
